Here are results for 1 compound from patent US11207338B2, “Composition for preventing and treating osteoporosis, comprising dihydrophaseic acid 3′-O-β-D-glucopyranoside isolated from lycium root bark extracts” (DONG WOO DANG CO., LTD, priority 2015, dated 2021).

Test [1] concerns C3H10T1/2 cells. The test can be described thus: Cell proliferation assay (EZ-Cytox, water-soluble tetrazolium salt). Type of test: cell-based, mouse. Particulars: 5 μg/mL compared with 1 and 10 μg/ml. As for the experimental part:
(§1) C3H10T1/2 cells which are mouse mesenchymal stem cells and MC3T3-E1 cells which are pre-osteoblasts were cultured in Basal Medium Eagle (BME) medium supplemented with 10% fetal bovine serum, 1 mM sodium pyruvate, 100 units/L penicillin and 100 mg/L streptomycin and α-minimal essential medium (α-MEM) at 37° C. under 5% CO2.
(§2) The D3G fraction layer obtained in Examples 1 and 2 was dissolved in sterilized distilled water and divided into three groups of concentrations of 1 μg/ml, 5 μg/ml and 10 μg/ml, and then added them to C3H10T1/2 cells and MC3T3-E1 cells respectively and further cultured for 48 hours. Cells cultured in the absence of the D3G fraction layer were used as a control.
Cell proliferation assays were performed using a EZ-Cytox Enhanced Cell Viability Assay Kit product with water-soluble tetrazolium salt.
Specifically, C3H10T1/2 cells and MC3T3-E1 cells (3×10^3 cells/well) were inoculated into 96-well plates and cultured in growth medium at 37° C. for 24 hours in 5% CO2, and then the Lycium root bark extracts of three concentrations (1 μg/ml, 5 μg/ml and 10 μg/ml) were added to the cells and cultured for 2 days. […]
(§3) Statistical analysis was performed by student's t-test for the control group without extract treatment and for each treatment group with extract treatment, and expressed as *p<0.05 depending on significance level.

The test system of test [2] is MC3T3-E1 cells. Put plainly: Analysis of mineralization action (alizarin red S staining). Type of test: cell-based. Particulars: 5 μg/mL, 3 weeks, vs control. As to the method: (§4) In the case of MC3T3-E1 cells, ascorbic acid (50 μg/ml) and β-Glycerophosphate (10 mM), which are the osteoblast differentiation-inducing agents, were added, and then differentiation was induced for 3 days before treatment with the D3G fraction layer.
The analysis of mineralization action of the cells was performed after incubation of the experimental group treated with 5 μg/ml of the D3G and the control group for 3 weeks. The analysis of mineralization action was performed using the Alizarlin red S staining method.

In test [3] the test system is mixed culture of MC3T3-E1 pre-osteoblasts and mouse monocytes. Put plainly: Mixed culture of osteoblast and osteoclast (ALP and TRAP activity). The format is cell-based. Conditions: MC3T3-E1 plus monocytes mixed culture; 5 μg/mL. As to the method:
In order to assess the maintenance of bone remodeling under the condition closer to the in vivo condition through the balanced action between osteogenesis and bone resorption by osteoblasts and osteoclasts, MC3T3-E1(2×10^4 cells/well), which are pre-osteoblasts, and monocytes (4×10^4 cells/well) obtained by extracting stem cells from the femoral region of the mouse and culturing them were mixed and cultured.
To the mixed culture of osteoblasts and osteoclasts, ascorbic acid (50 μg/ml) and β-glycerophosphate (10 mM) which are osteoblast differentiation-inducing agents were added to induce differentiation for 3 days and then treated with D3G fraction layer. After adding the D3G fraction layer (5 μg/mL) to the mixed culture solution, the activity of ALP which is an osteoblast differentiation marker and the activity of TRAP which is an osteoclast differentiation marker were measured. Statistical analysis was performed by student's t-test and expressed as *p<0.05 and **p<0.01 depending on significance level.

Test [4] deals with MC3T3-E1 cells. Put plainly: Analysis of ALP activity. The format is cell-based. As to the method:
as §1
In the case of MC3T3-E1 cells, ascorbic acid (50 μg/ml) and β-Glycerophosphate (10 mM), which are the osteoblast differentiation-inducing agents, were added, and then differentiation was induced for 3 days before treatment with the D3G fraction layer. […]
(§5) After culturing the D3G-treated experimental group treated with the three kinds of concentrations (1 μg/ml, 5 μg/ml, 10 μg/ml) and the control group for 48 hours, ALP activity of cells was measured. ALP activity was measured using a ALP Assay Kit.
Specifically, after washing the cells with the physiological saline, the cell lysed with cytolytic agent was treated with p-nitrophenyl phosphate which is a substrate of ALP and then cultured at 37° C. for 1 hour. Thereafter, 0.5N NaOH which is a reaction stop solution was added, and then the absorbance was measured at a wavelength of 405 nm.
The effect of the cell ALP activity of the Lycium root bark extract in C3H10T1/2 cells and differentiation induced MC3T3-E1 cells was analyzed by the method as described above, and the results are shown in FIG. 4. […]

Test [5] has as its system C3H10T1/2 cells. The test can be described thus: Analysis of ALP activity. The format is cell-based, mouse. As to the method: as §1, §2, §5
Specifically, after washing the cells with the physiological saline, the cell lysed with cytolytic agent was treated with p-nitrophenyl phosphate which is a substrate of ALP and then cultured at 37° C. for 1 hour. Thereafter, 0.5N NaOH which is a reaction stop solution was added, and then the absorbance was measured at a wavelength of 405 nm. […]

Test [6] concerns MC3T3-E1 cells. Put plainly: Cell proliferation assay (EZ-Cytox, water-soluble tetrazolium salt). Type of test: cell-based. Particulars: differentiation induced MC3T3-E1 cells; 5 μg/mL compared with 1 and 10 μg/ml. As for the experimental part: as §1, §4, §2
Cell proliferation assays were performed using a EZ-Cytox Enhanced Cell Viability Assay Kit product with water-soluble tetrazolium salt. […]
as §3

Test [7] concerns monocytes isolated from mouse bone marrow. Put plainly: Osteoclast differentiation (TRAP activity and TRAP staining). The format is cell-based. Particulars: mouse monocytes with M-CSF and RANKL; 5 μg/ml; treated vs untreated. As to the method: Osteoclasts was isolated from primary monocytes, which are the […] of osteoclasts from the bone marrow of a 6 week old mouse, and cultured them. After confirming that the osteoclasts isolated from mouse stem cells were monocytes isolated from the bone marrow of the mouse through FACS (FIG. 6a) (monocyte positive marker antibody: CD11b), an experiment was performed. Separated mouse monocytes were treated with 30 ng/ml M-CSF and 50 ng/ml LANKL, which are osteoclast differentiation-inducing agents, and differentiation was induced for 3 days before treatment with D3G fraction layer.
Osteoclasts are derived from stem cells and are responsible for bone resorption that destroys aged bone wherein bone remodeling is maintained through the balanced action of osteogenesis by osteoblasts and bone resorption by osteoclasts. To the monocytes extracted and cultured from the stem cells of the femoral region of the mouse, 30 ng/mL M-CSF and 50 ng/mL RANKL were added together and then cultured for 5 days. Thereafter, the activity of TRAP which is an osteoclast differentiation marker was measured.
After washing the cells with physiological saline, TRAP activity was measured by absorbance at a wavelength of 405 nm using an Acid-Phosphatase Kit, and after staining, the osteoclasts were observed through a microscope.

In test [8] the test system is MC3T3-E1 cells. The test can be described thus: Expression level of osteoblast differentiation gene markers (real-time PCR). The format is cell-based. Particulars: differentiation-induced MC3T3-E1 cells; 5 μg/ml; relative to Gapdh. As to the method:
as §4
The change in the expression levels of mRNAs of osteoblast differentiation gene markers, Alp, Runx2, and Bglap (Osteocalcine) among bone remodeling-related gene markers was confirmed by a quantitative reverse transcription-PCR.
After harvesting the cells, total RNA was isolated using Trizol, and in order to remove genomic DNA, DNase I was reacted at room temperature for 15 minutes and then treated with EDTA to inactivate DNase I.
Thereafter, the reverse transcription reaction was induced by using oligo dT primer as a primer to synthesize cDNA, and then real-time PCR was performed using sequence specific primers of each gene and SYBR Green. The analysis of the expression level was performed by using the relative quantification method for the target gene using the Gapdh gene as a control. The gene-specific primer sequence information for identifying the level of expression of the gene markers used to determine the degree of differentiation of osteoblasts and osteoclasts is shown in Table 1 below.
Expression levels of the three gene markers, Alp, Runx2, and Bglap related to bone remodeling for the D3G in differentiation-induced MC3T3-E1 cells were compared by the method as described above, and the results are shown in FIGS. 7a, 7b, and 7c. Statistical analysis was performed by student's t-test and expressed as *p<0.05 depending on significance level.

In the case of `CC(=C/C(=O)O)/C=C/[C@]1(O)[C@]2(C)CO[C@@]1(C)C[C@@H](OC1OC(CO)C(O)C(O)C1O)C2` (stereo partly drawn) [D3G, dihydrophaseic acid 3′-O-β-D-glucopyranoside], in the test with C3H10T1/2 cells [1], the “cell proliferation promoting effect at the optimal concentration” value is “highest”. The “mineralization (alizarin red S staining)” value in the test with MC3T3-E1 cells [2] is “increase mineralization”. Besides, in test [3], the “ALP activity in mixed culture” value is on record as “increase” and the “TRAP activity in mixed culture” value is “increase”. The “enhancing effect of cell ALP activity at 5 μg/mL” value in the test with MC3T3-E1 cells [4] (MC3T3-E1 cells, 5 μg/mL compared with 1 and 10 μg/ml) was “best effect”. Moreover, the ALP activity result in the test on MC3T3-E1 cells [4] (differentiation induced MC3T3-E1 cells, 1, 5 and 10 μg/ml, 48 hours, vs control) is recorded as “increase ALP activity”. Moreover, the “enhancing effect of cell ALP activity at 5 μg/mL” value in the test with C3H10T1/2 cells [5] (5 μg/mL compared with 1 and 10 μg/ml) is on record as “best effect”. The ALP activity entry in the test with C3H10T1/2 cells [5] (1, 5 and 10 μg/ml, 48 hours, vs control) is recorded as “increase ALP activity”. Besides, in the test with MC3T3-E1 cells [6], the “cell proliferation promoting effect at the optimal concentration” value was “highest”. In test [7], the “TRAP activity (osteoclast differentiation marker)” value is given as “no significant change” and the “TRAP staining of differentiated osteoclast” value was “no significant change”. For the same compound, in the test on MC3T3-E1 cells [8], the “expression level of Alp mRNA” value is “increased”, the “expression level of Bglap (Osteocalcin) mRNA” value was “increased” and the “expression level of Runx2 mRNA” value is given as “increased”.
